The source of these data is US20100021950A1, “SCREENING METHOD FOR ANTI-DIABETIC COMPOUNDS” (priority 2007, published 2010).

Like-named read-outs stand apart in the source and are kept apart here.

Test [1] relates to mouse pancreatic islets. As to conditions: 10 μM, Gogg et al. (2001); cited from earlier work.
The subject of a further test is EphA5. Nature of the test: EphA5 immunoprecipitation and phosphotyrosine Western blot, MIN6 cells. Particulars: 10 μM, 25 mM glucose, 5 min. It is filed as cell-based, mouse. On the procedure:
MIN6 cells and pancreatic islets were lysed in RIPA buffer, supplemented with protease and phosphatase inhibitors. 1 μg total protein, isolated from MIN6 cell lysates or 500 ng total protein, isolated from islet lysates, were used for immunoprecipitation with 1:1,000-diluted rabbit-anti-EphA5 (Santa Cruz) and protein-A beads (Amersham). For immunoprecipitation/pull-down of Rac1-GTP with Pak1-PBD (P21-activated kinase-1-P21 Binding Domain) and Westem blots, a Rac1 Activation StressXPress Kit (Biomol) was used. The immunoprecipitates were separated on 4-12% gradient SDS-polyacrylamide gels (Invitrogen) and transferred onto a PVDF membrane (Amersham). For western blots, 1:500-diluted rabbit-anti-EphA5 antibody (Santa Cruz), 1:1,000-diluted mouse-anti-PY antibody (Biomol) and 1:200-diluted rabbit-anti-Rac1 antibody (Santa Cruz) were used. 1:10,000-diluted HRP-conjugated donkey-anti-rabbit antibody (Dianova) and 1:5,000-diluted HRP-conjugated goat-anti-mouse antibody (Dianova) were used as secondary antibodies. Western blots were developed using an ECL system (Amersham). The intensities of EphA5 and Rac1 bands were normalized to the intensities of total EphA5 and Rac1, respectively, and presented as % of basal control. The intensities of the bands were quantified by using TotalLab software (Stratagene).
Background: A western blot detects proteins with antibodies after separation by electrophoresis.

The subject of another test is MIN6 cells. Nature of the test: Insulin secretion from MIN6 cells. Type of test: cell-based, mouse. Particulars: 25 mM glucose. The source says: MIN6 cells (Miyazaki et al. (1990) Endocrinol. 127, 126) at passages 37-47 were maintained as previously described (Nikolova et al. (2006) Dev. Cell 10, 397). The cells were electroporated with pEGFP, pEGFP-wtEphA5 (Gao et al. (1998) Proc. Natl. Acad. Sci. U.S.A. 95, 5329), pEGFP-DN-EphA5 (Gao et al. (1998) Proc. Natl. Acad. Sci. U.S.A. 95, 5329), pEGFP-ephrin-A5, (Wimmer-Kleikamp et al. (2004) J. Cell Biol. 164, 661), pEGFP-wtRac1, pEGFP-DN-Rac1 (Rac1N17) (Hall (2005) Biochem. Soc. Trans. 33, 891) and pcDNA-Cx36 constructs (Ravier et al. (2005) Diabetes 54, 1798); siRNA against firefly luciferase (control siRNA), ephrin-A5 and Cx36 by using Amaxa nucleofection (Amaxa biosystems).
For insulin secretion measurements, islets or MIN6 cells were starved for 1 h in Krebs Ringer Buffer (KRB) containing 115 mM NaCl, 5 mM KCl, 1.2 mM KH2PO4, 1 mM MgSO4, 2.5 mM CaCl2, 24 mM NaHCO3, 2 mM glucose, 25 mM HEPES (pH 7.4), and 0.1% bovine serum albumin. After starvation, medium was exchanged for the same buffer +/− Fc fusion proteins to measure basal secretion, or for KRB containing 25 mM glucose +/− Fc fusion proteins to measure glucose-stimulated insulin secretion, during 1 h incubation. When Fc fusion proteins were used, islets were continuously shaken (300-500 rpm) to facilitate access of Fc fusion proteins to islet β-cells. The amount of secreted insulin was measured in the medium, and islets or MIN6 cells were subsequently dissolved in RIPA buffer to measure insulin content and total protein content. Secreted insulin was normalized to total insulin content and total protein content, and presented as % of basal control insulin secretion. In all histograms, the first column represents the basal control (=100%), except in FIG. 3C, in which the third column is taken as basal control. Secreted insulin and insulin content were measured by using ultra-sensitive rat insulin ELISA kit (Crystal Chem inc.). The total protein content was measured using BCA kit (Molecular Probes). […]

For test [2], the system named is mouse pancreatic islets. Nature of the test: Insulin secretion from mouse pancreatic islets. As to conditions: 25 mM glucose, 1 h; Fc fusion proteins 4 μg/ml, peroxovanadate 10 μM; compared with Fc. Type of test: cell-based. The source says:
Pancreatic islets were isolated from NMRI mice for all experiments, except for the experiments with male ephrin-A5-/- and control littermates, which were C57BL/6 (Knoll et al. (2001) Development 128, 895). All mice used were 8-10 weeks old. Human pancreatic islets were isolated from a perfused human pancreas by using a protocol approved by the Ethical Research Committee of the Technical University Medical School Dresden and according to the law of the State of Saxony. Mouse and human islets were cultured overnight in Dulbecco's modified Eagle's medium (DMEM) containing 11 mM glucose (Gibco), supplemented with 10% heat inactivated fetal calf serum (FCS), 100U/ml Penicillin, 100 μg/ml Streptomycin, 1.5 g/L NaHCO3 in a humidified atmosphere (5% CO2, 37° C.). […]
For insulin secretion measurements, islets or MIN6 cells were starved for 1 h in Krebs Ringer Buffer (KRB) containing 115 mM NaCl, 5 mM KCl, 1.2 mM KH2PO4, 1 mM MgSO4, 2.5 mM CaCl2, 24 mM NaHCO3, 2 mM glucose, 25 mM HEPES (pH 7.4), and 0.1% bovine serum albumin. […] The amount of secreted insulin was measured in the medium, and islets or MIN6 cells were subsequently dissolved in RIPA buffer to measure insulin content and total protein content. […] Secreted insulin and insulin content were measured by using ultra-sensitive rat insulin ELISA kit (Crystal Chem inc.). The total protein content was measured using BCA kit (Molecular Probes). […]

As to peroxovanadate, the glucose-stimulated insulin secretion result in the test with mouse pancreatic islets [1] is “strongly reduced”; in the test on MIN6 cells (confluent MIN6 cells, 1 h, Fc fusion proteins 4 μg/ml, peroxovanadate 10 μM, compared with Fc), “reduced”; with mouse pancreatic islets [2] it was “reduced”. For the same molecule, the “glucose-induced EphA5 dephosphorylation” value with EphA5 was “effectively prevented”. In addition, the “EphA5 phosphorylation levels at stimulatory conditions” value in the test with EphA5 (relative to basal levels) was “increased”.

B1: wt EphA5: full-length EphA5 protein over-expressed in MIN6 cells from pEGFP-wtEphA5 (protein, UniProt Q60629 1-876, looked up)
chain: MRGSGPRGAGHRRTQGRGGGDDTPRVPASLAGCYSAPLKGPLWTCLLLCAALRTLLASPSNEVNLLDSRTVMGDLGWIAFPKNGWEEIGEVDENYAPIHTYQVCKVMEQNQNNWLLTSWISNEGASRIFIELKFTLRDCNSLPGGLGTCKETFNMYYFESDDENGRSIKENQYIKIDTIAADESFTELDLGDRVMKLNTEVRDVGPLSKKGFYLAFQDVGACIALVSVRVYYKKCPSVVRHLAIFPDTITGADSSQLLEVSGSCVNHSVTDDPPKMHCSAEGEWLVPIGKCMCKAGYEEKNGTCQAPSPVTNVKKGKIAKNSISLSWQEPDRPNGIILEYEIKYFEKDQETSYTIIKSKETSITAEGLKPASVYVFQIRARTAAGYGVFSRRFEFETTPVSVAASNDQSQIPIIAVSVTVGVILLAVMIGFLLSGSCCDCGCGRASSLCAVAHPSLIWRCGYSKAKQDPEEEKMHFHNGHIKLPGVRTYIDPHTYEDPNQAVHEFAKEIEASCITIERVIGAGEFGEVCSGRLKLPGKRELPVAIKTLKVGYTEKQRRDFLGEASIMGQFDHPNIIHLEGVVTKSKPVMIVTEYMENGSLDTFLKKNDGQFTVIQLVGMLRGIAAGMKYLSDMGYVHRDLAARNILINSNLVCKVSDFGLSRVLEDDPEAAYTTRGGKIPIRWTAPEAIAFRKFTSSSDVWSYGIVMWEVVSYGERPYWEMTNQDVIKAVEEGYRLPSPMDCPAALYQLMLDCWQKDRNSRPKFDEIVNMLDKLIRNPSSLKTLVNASSRVSTLLAEHGSLGSGAYRSVGEWLEAIKMGRYTEIFMENGYSSMDAVAQVTLEDLRRLGVTLVGHQKKIMSSLQEMKVQMVNGMVPV
modifications: full-length EGFP fusion
notes: full-length EphA5 protein over-expressed in MIN6 cells from pEGFP-wtEphA5
On to B1, for which, in the test on MIN6 cells (over-expression in confluent MIN6 cell monolayers, vs empty vector), the glucose-stimulated insulin secretion result is recorded as “decreased”. Also, in the test on MIN6 cells (over-expression, 10 μM peroxovanadate, vs empty vector/PV), the “glucose-stimulated insulin secretion in PV-treated MIN6 cells” value is recorded as “reduced”.
